Assay results as given in ChEMBL document CHEMBL4334536, “PROTAC-Mediated Degradation of KRAS Protein for Anticancer Therapeutics” (ACS Med Chem Lett, 2020).

Columns and labels:
Format in all cases: cell-based
NCI-H2030 [G12C] [1] = assay: Protac activity at E3 ubiquitin ligase/KRAS G12C mutant in human NCI-H2030 cells assessed as maximal KRAS degradation at 0.3 uM after 24 hrs by Western blot analysis relative to control
NCI-H2030 [G12C] [2] = assay: Protac activity at E3 ubiquitin ligase/KRAS G12C mutant in human NCI-H2030 cells assessed as maximal KRAS degradation at 1 uM after 24 hrs by Western blot analysis relative to control
NCI-H2030 [G12C] [3] = assay: Protac activity at E3 ubiquitin ligase/KRAS G12C mutant in human NCI-H2030 cells assessed as maximal KRAS degradation at 3 uM after 24 hrs by Western blot analysis relative to control

Chain of NCI-H2030 [G12C] (as listed by the source, stated change not applied): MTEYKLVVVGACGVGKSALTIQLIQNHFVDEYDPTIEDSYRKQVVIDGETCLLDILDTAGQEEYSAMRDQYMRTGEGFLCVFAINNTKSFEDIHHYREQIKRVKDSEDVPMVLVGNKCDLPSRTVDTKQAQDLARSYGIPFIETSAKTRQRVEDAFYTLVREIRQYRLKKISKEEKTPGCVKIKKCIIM

SMILES | Emax (NCI-H2030 [G12C] [1]) | Emax (NCI-H2030 [G12C] [2]) | Emax (NCI-H2030 [G12C] [3])
C=CC(=O)N1CCN(c2nc(NCCC(=O)N(C)CCOCCOCCOCCOCCOCC(=O)N[C@H](C(=O)N3C[C@H](O)C[C@H]3C(=O)N[C@@H](C)c3ccc(-c4scnc4C)cc3)C(C)(C)C)nc3c(F)c(-c4cc(O)cc5ccccc45)c(Cl)cc23)CC1 | < 25% | > 50% | > 50%
CCC(=O)N1CCN(c2nc(NCCC(=O)N(C)CCOCCOCCOCCOCC(=O)N[C@H](C(=O)N3C[C@H](O)C[C@H]3C(=O)N[C@@H](C)c3ccc(-c4scnc4C)cc3)C(C)(C)C)nc3c(F)c(-c4cc(O)cc5ccccc45)c(Cl)cc23)CC1 | < 25% | < 25% | < 25%
C=CC(=O)N1CCN(c2nc(NCCC(=O)N(C)CCOCCOCCOCC(=O)N[C@H](C(=O)N3C[C@H](O)C[C@H]3C(=O)N[C@@H](C)c3ccc(-c4scnc4C)cc3)C(C)(C)C)nc3c(F)c(-c4cc(O)cc5ccccc45)c(Cl)cc23)CC1 | < 25% | 25 to 50% | 25 to 50%
CCC(=O)N1CCN(c2nc(NCCC(=O)N(C)CCOCCOCCOCCOCCOc3ccc4c(c3)CN(C3CCC(=O)NC3=O)C4=O)nc3c(F)c(-c4cc(O)cc5ccccc45)c(Cl)cc23)CC1 (stereo not drawn) | < 25% | 25 to 50% | 25 to 50%
C=CC(=O)N1CCN(c2nc(NCCC(=O)N(C)CCOCCOCCOCCNc3cccc4c3C(=O)N(C3CCC(=O)NC3=O)C4=O)nc3c(F)c(-c4cc(O)cc5ccccc45)c(Cl)cc23)CC1 (stereo not drawn) | < 25% | 25 to 50% | 25 to 50%
C=CC(=O)N1CCN(c2nc(NCCC(=O)N(C)CCOCCOCCOCCOCC(=O)N[C@H](C(=O)N3C[C@H](O)C[C@H]3C(=O)N[C@@H](C)c3ccc(-c4scnc4C)cc3)C(C)(C)C)nc3c(F)c(-c4cc(O)cc5ccccc45)c(Cl)cc23)CC1 | < 25% | > 50% | > 50%
